The assay deals with KRas G12D-mediated phosphorylation of ERK. Put plainly: Inhibition of KRas G12D-mediated phosphorylation of ERK in AGS cells. The following applies: Homo sapiens; AGS cells expressing G12D, 3 hours, phospho-ERK normalized to GAPDH. The assay is classed as cell-based. Put shortly: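 Fixed, methanol-permeabilized; phospho-ERK (Thr202/Tyr204) by in-cell immunofluorescence normalized to GAPDH. Percent of DMSO control, IC50 by 4-parameter fit.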

These results are taken from patent publication US11453683B1, “KRas G12D inhibitors” (Mirati Therapeutics, Inc., priority 2019, dated 2022).

In general, IC50 refers to the concentration needed to halve the response being measured. Higher therefore signals weaker potency in that assay.

For the molecule `C[C@H]1C[C@H]1c1ccccc1-c1ncc2c(N3C[C@H]4CC[C@@H](C3)N4)nc(OCC34CCCN3CCC4)nc2c1F` [Example 287, 4-((1R,5S)-3,8-diazabicyclo[3.2.1]octan-3-yl)-8-fluoro-2-((hexahydro-1H-pyrrolizin-7a-yl)methoxy)-7-(2-((1R,2S)-2-methylcyclopropyl)phenyl)pyrido[4,3-d]pyrimidine], the IC50 came to 8.07 µM. This counts as single-digit micromolar.
Then `Fc1c(-c2cccc3cccc(Cl)c23)ncc2c(N3CC4CCC(C3)N4)nc(OC[C@@]34CCCN3C[C@@H](C(F)(F)F)C4)nc12` (mixture of isomers) [Example 382, 4-((1R,5S)-3,8-diazabicyclo[3.2.1]octan-3-yl)-7-(8-chloronaphthalen-1-yl)-8-fluoro-2-(((2S,7aS)-2-(trifluoromethyl)tetrahydro-1H-pyrrolizin-7a(5H)-yl)methoxy)pyrido[4,3-d]pyrimidine) (mixture of cis diastereomers)], with over 16.7 µM; and `Nc1nccn1CCOc1nc(N2CC3CCC(C2)N3)c2cnc(-c3cccc4cccc(Cl)c34)c(F)c2n1` [Example 178, 1-[2-[7-(8-chloro-1-naphthyl)-4-(3,8-diazabicyclo[3.2.1]octan-3-yl)-8-fluoro-pyrido[4,3-d]pyrimidin-2-yl]oxyethyl]imidazol-2-amine], with over 16.7 µM.
Then `C#Cc1cccc2cc(O)cc(-c3ncc4c(N5CC6CCC(C5)N6)nc(OC[C@@]56CCCN5C[C@H](OC)C6)nc4c3F)c12` (stereo in doubt) [Example 410, 4-(4-((1R,5S)-3,8-diazabicyclo[3.2.1]octan-3-yl)-8-fluoro-2-((2-methoxytetrahydro-1H-pyrrolizin-7a(5H)-yl)methoxy)pyrido[4,3-d]pyrimidin-7-yl)-5-ethynylnaphthalen-2-ol], with 0.008 µM.
For the molecule `CCn1ccc2cccc(-c3ncc4c(N5C[C@H]6CC[C@@H](C5)N6)nc(OCC56CCCN5CCC6)nc4c3F)c21` [Example 427, 4-((1R,5S)-3,8-diazabicyclo[3.2.1]octan-3-yl)-7-(1-ethyl-1H-indol-7-yl)-8-fluoro-2-((hexahydro-1H-pyrrolizin-7a-yl)methoxy)pyrido[4,3-d]pyrimidine], the IC50 came to 1.98 µM.
Then `Oc1cc(-c2ncc3c(N4C[C@H]5CC[C@@H](C4)N5)nc(N4CCC4)nc3c2F)c2ccccc2c1` [Example 119, 4-(2-(azetidin-1-yl)-4-((1R,5S)-3,8-diazabicyclo[3.2.1]octan-3-yl)-8-fluoropyrido[4,3-d]pyrimidin-7-yl)naphthalen-2-ol 2,2,2-trifluoroacetate], with 3.7 µM; and `C#Cc1cccc2cc(O)cc(-c3ncc4c(N5C[C@H]6CC[C@@H](C5)N6)nc(OC[C@@]56CCCN5C[C@H](F)C6)nc4c3F)c12` [Example 243, 4-(4-((1R,5S)-3,8-diazabicyclo[3.2.1]octan-3-yl)-8-fluoro-2-(((2R,7aS)-2-fluorohexahydro-1H-pyrrolizin-7a-yl)methoxy)pyrido[4,3-d]pyrimidin-7-yl)-5-ethynylnaphthalen-2-ol], with 0.0008 µM; and `CCO[C@@H]1C[C@@H](COc2nc(N3C[C@H]4CC[C@@H](C3)N4)c3cnc(-c4cccc5cccc(Cl)c45)c(F)c3n2)N(C)C1` [Example 43, 4-((1R,5S)-3,8-diazabicyclo[3.2.1]octan-3-yl)-7-(8-chloronaphthalen-1-yl)-2-(((2S,4R)-4-ethoxy-1-methylpyrrolidin-2-yl)methoxy)-8-fluoropyrido[4,3-d]pyrimidine], with 6.2 µM.
Then `Oc1cc(-c2ncc3c(N4C[C@H]5CC[C@@H](C4)N5)nc(OC4CCOCC4)nc3c2F)c2ccccc2c1` [Example 72, 4-(4-((1R,5S)-3,8-diazabicyclo[3.2.1]octan-3-yl)-8-fluoro-2-((tetrahydro-2H-pyran-4-yl)oxy)pyrido[4,3-d]pyrimidin-7-yl)naphthalen-2-ol], with 7.26 µM; and `CN(C)C1(C)CN(c2nc(N3C[C@H]4CC[C@@H](C3)N4)c3cnc(-c4cccc5cccc(Cl)c45)c(F)c3n2)C1` [Example 127, 1-(4-((1R,5S)-3,8-diazabicyclo[3.2.1]octan-3-yl)-7-(8-chloronaphthalen-1-yl)-8-fluoropyrido[4,3-d]pyrimidin-2-yl)-N,N,3-trimethylazetidin-3-amine], with over 16.7 µM; and `Oc1cc(-c2ncc3c(N4C[C@H]5CC[C@@H](C4)N5)nc(OC[C@@H]4CCCN4Cc4ccccc4)nc3c2F)c2ccccc2c1` [Example 12, 4-(2-(((S)-1-benzylpyrrolidin-2-yl)methoxy)-4-((1R,5S)-3,8-diazabicyclo[3.2.1]octan-3-yl)-8-fluoropyrido[4,3-d]pyrimidin-7-yl)naphthalen-2-ol], with 4.91 µM.
Then `CCC#Cc1cccc2cccc(-c3ncc4c(N5C[C@H]6CC[C@@H](C5)N6)nc(OCC56CCCN5CCC6)nc4c3F)c12` [Example 242, 4-((1R,5S)-3,8-diazabicyclo[3.2.1]octan-3-yl)-7-(8-(but-1-yn-1-yl)naphthalen-1-yl)-8-fluoro-2-((tetrahydro-1H-pyrrolizin-7a(5H)-yl)methoxy)pyrido[4,3-d]pyrimidine], with over 16.7 µM; and `Cc1ccc2[nH]ncc2c1-c1ncc2c(N3CC4CCC(C3)N4)nc(OCC34CCCN3C[C@H](F)C4)nc2c1F` (mixture of isomers) [Example 331, 4-((1R,5S)-3,8-diazabicyclo[3.2.1]octan-3-yl)-8-fluoro-2-((2-fluorotetrahydro-1H-pyrrolizin-7a(5H)-yl)methoxy)-7-(5-methyl-1H-indazol-4-yl)pyrido[4,3-d]pyrimidine], with 10.8 µM.
With `O[C@H]1CN2CCC[C@@]2(COc2nc(N3CC4CCC(C3)N4)c3cnc(-c4cccc5cccc(Cl)c45)c(F)c3n2)C1` [Example 223, 7a-(((4-((1R,5S)-3,8-diazabicyclo[3.2.1]octan-3-yl)-7-(8-chloronaphthalen-1-yl)-8-fluoropyrido[4,3-d]pyrimidin-2-yl)oxy)methyl)hexahydro-1H-pyrrolizin-2-ol bis-2,2,2-trifluoroacetate], inhibition was half-maximal at 4.27 µM (IC50).
Molecule `CNc1nc(N2CC3CCC(C2)N3)c2cnc(-c3cc(O)cc4ccccc34)c(F)c2n1` [Example 183, 4-[4-(3,8-diazabicyclo[3.2.1]octan-3-yl)-8-fluoro-2-(methylamino)pyrido[4,3-d]pyrimidin-7-yl]naphthalen-2-ol] came in with an IC50 of 5.25 µM.
Regarding `OC[C@@H]1CCN1c1nc(N2C[C@H]3CC[C@@H](C2)N3)c2cnc(-c3cc(O)cc4ccccc34)c(F)c2n1` [Example 121, 4-(4-((1R,5S)-3,8-diazabicyclo[3.2.1]octan-3-yl)-8-fluoro-2-((S)-2-(hydroxymethyl)azetidin-1-yl)pyrido[4,3-d]pyrimidin-7-yl)naphthalen-2-ol 2,2,2-trifluoroacetate], the IC50 was 4.08 µM.
Then `Oc1cc(-c2ncc3c(N4C[C@H]5CC[C@@H](C4)N5)nc(OCC4CCCC4)nc3c2F)c2ccccc2c1` [Example 73, 4-(4-((1R,5S)-3,8-diazabicyclo[3.2.1]octan-3-yl)-2-(cyclopentylmethoxy)-8-fluoropyrido[4,3-d]pyrimidin-7-yl)naphthalen-2-ol], with over 5.56 µM; and `COCCCOc1nc(N2C[C@H]3CC[C@@H](C2)N3)c2cnc(-c3cc(O)cc4ccccc34)c(F)c2n1` [Example 68, 4-(4-((1R,5S)-3,8-diazabicyclo[3.2.1]octan-3-yl)-8-fluoro-2-(3-methoxypropoxy)pyrido[4,3-d]pyrimidin-7-yl)naphthalen-2-ol], with 7.53 µM; and `CC(C)c1c(F)cccc1-c1ncc2c(N3C[C@H]4CC[C@@H](C3)N4)nc(OCC34CCCN3CCC4)nc2c1F` [Example 299, 4-((1R,5S)-3,8-diazabicyclo[3.2.1]octan-3-yl)-8-fluoro-7-(3-fluoro-2-isopropylphenyl)-2-((hexahydro-1H-pyrrolizin-7a-yl)methoxy)pyrido[4,3-d]pyrimidine], with over 5.56 µM.
Then `CN1C[C@H](C(F)(F)F)C[C@H]1COc1nc(N2C[C@H]3CC[C@@H](C2)N3)c2cnc(-c3cc(O)cc4ccccc34)c(F)c2n1` [Example 28, 4-(4-((1R,5S)-3,8-diazabicyclo[3.2.1]octan-3-yl)-8-fluoro-2-(((2S,4R)-1-methyl-4-(trifluoromethyl)pyrrolidin-2-yl)methoxy)pyrido[4,3-d]pyrimidin-7-yl)naphthalen-2-ol], with 11.7 µM.
Then `C#CCc1ccc(O)cc1-c1ncc2c(N3C[C@H]4CC[C@@H](C3)N4)nc(OCC34CCCN3CCC4)nc2c1F` [Example 279, 3-(4-((1R,5S)-3,8-diazabicyclo[3.2.1]octan-3-yl)-8-fluoro-2-((hexahydro-1H-pyrrolizin-7a-yl)methoxy)pyrido[4,3-d]pyrimidin-7-yl)-4-(prop-2-yn-1-yl)phenol], with 7.4 µM; and `CCc1c(F)ccc2cc(O)cc(-c3ncc4c(N5C[C@H]6CC[C@@H](C5)N6)nc(OCC56CCCN5CCC6)nc4c3F)c12` [Example 314, 4-(4-((1R,5S)-3,8-diazabicyclo[3.2.1]octan-3-yl)-8-fluoro-2-((hexahydro-1H-pyrrolizin-7a-yl)methoxy)pyrido[4,3-d]pyrimidin-7-yl)-5-ethyl-6-fluoronaphthalen-2-ol], with 0.0037 µM.
`C[C@H]1C[C@@H]1c1c(Cl)cc(O)cc1-c1ncc2c(N3C[C@H]4CC[C@@H](C3)N4)nc(OC[C@@]34CCCN3C[C@H](F)C4)nc2c1F` [Example 451, 3-(4-((1R,5S)-3,8-diazabicyclo[3.2.1]octan-3-yl)-8-fluoro-2-(((2R,7aS)-2-fluorotetrahydro-1H-pyrrolizin-7a(5H)-yl)methoxy)pyrido[4,3-d]pyrimidin-7-yl)-5-chloro-4-((1S,2S)-2-methylcyclopropyl)phenol] yielded an IC50 of 0.0783 µM.
Then `Oc1ccc(OC(F)(F)F)c(-c2ncc3c(N4CC5CCC(C4)N5)nc(OCC45CCCN4C[C@H](F)C5)nc3c2F)c1` (mixture of isomers) [Example 340, 3-(4-((1R,5S)-3,8-diazabicyclo[3.2.1]octan-3-yl)-8-fluoro-2-((2-fluorotetrahydro-1H-pyrrolizin-7a(5H)-yl)methoxy)pyrido[4,3-d]pyrimidin-7-yl)-4-(trifluoromethoxy)phenol], with 0.0515 µM.
